What all share (assay): NCI anticancer screen, dose series, 48 h
For experiment [1], the system named is 786-0 renal.
The subject of experiment [2] is HCT-116 colon.
The subject of experiment [3] is HOP-62 NSCLC.
The subject of experiment [4] is HOP-92 NSCLC.
Experiment [5] deals with KM12 colon.
In experiment [6] the test system is NCI/ADR-RES ovarian.
For experiment [7], the system named is OVCAR-3 ovarian.
The subject of experiment [8] is SK-MEL-2 melanoma.
Experiment [9] has as its system SK-MEL-28 melanoma.
Experiment [10] relates to T-47D breast.

In PubChem BioAssay (NCI) one finds TGI and GI50 data, which are given here for 6 compounds.

Each structure is given as a SMILES string.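 Interpolation was linear, between the two tested concentrations surrounding the appropriate level; five concentrations were tested over 48 hours in 96-well plates. Here, GI50 denotes the concentration required for 50% inhibition of growth. At the TGI there is no net growth.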

`Nc1ncn(C2OC(COP(=O)(O)O)C(O)C2O)c(=O)n1` (stereo unspecified): the TGI in experiment [1], in experiment [2], in experiment [3], in experiment [4], in experiment [5] and in experiment [6] was above 100 µM throughout. Moreover, the TGI in [7], in experiment [8], in experiment [9] and in experiment [10] was above 100 µM each time.
As to `COC12C=C/C(=C(/C(=O)OCCSc3ccnn3C)C(=O)CCCCCCCCC3(OC)C=C/C(=C(/C(=O)OCCSc4ccnn4C)C(=O)CCCCCCCC1)O3)O2`, the GI50 in experiment [1] is 1.07 µM; in experiment [2], 0.66 µM; in [3], 0.95 µM; in experiment [4], 0.847 µM; in [5] it was 0.813 µM; in experiment [6], 1.64 µM. Also, the GI50 in experiment [7] is 0.966 µM; in experiment [8], 0.928 µM; in [9], 1.09 µM; in [10] it was 1.26 µM. Further, the TGI is 4.12 µM in [1]; 1.37 µM in experiment [2]; 2.81 µM in [3]; 2.55 µM in experiment [4]; 2.1 µM in experiment [5]; above 32.5 µM in [6]. Besides, the TGI in [7] was 2.77 µM; in experiment [8], 2.8 µM; in experiment [9], 8.24 µM; in experiment [10], above 32.5 µM.
For the compound `CC(CN1CC(=O)NC(=O)C1)N1CC(=O)NC(=O)C1` (stereo unspecified), the TGI in [1] is above 750 µM; in [2] it was above 750 µM; in [3] it was 709 µM; in experiment [4], 732 µM; in [5], above 729 µM; in experiment [6] it was above 698 µM. In addition, the TGI was 701 µM in experiment [7], 741 µM in experiment [8], above 750 µM in experiment [9] and above 750 µM in [10]. The GI50 in experiment [3] is 114 µM.
For the compound `COc1cc(OC)c(/C=C/C(=O)c2ccc(Nc3ncnc4ccccc34)cc2)c(OC)c1`, the GI50 in [1] was 1.47 µM; in experiment [2], 0.45 µM; in experiment [3] it was 0.966 µM; in experiment [4] it was 1.08 µM; in experiment [5], 0.51 µM; in experiment [6], 0.394 µM. For the same compound, the GI50 in experiment [7] was 0.365 µM; in experiment [8] it was 1.01 µM; in [9] it was 0.94 µM; in experiment [10], 1.51 µM. Moreover, the TGI was 3.55 µM in [1]; 2.04 µM in [2]; 2.32 µM in experiment [3]; 3.89 µM in experiment [4]; above 43.9 µM in [5]; 2.55 µM in experiment [6]. Besides, the TGI in experiment [7] amounted to 1.43 µM; in [8], 7.36 µM; in experiment [9], 3.03 µM; in [10], 14.3 µM.
As for `Cc1cc2c(cc1C)[n+](=O)c(C(=O)/C=C/c1ccc3c(c1)OCO3)c(C)n2[O-]`, the TGI in experiment [1] is above 100 µM; in [2] it was above 100 µM; in [3] it was 59.1 µM; in [4], 69.1 µM; in experiment [5], above 100 µM; in [6], above 100 µM. Also, the TGI in [7] is above 100 µM; in [8] it was 88.6 µM; in experiment [9], above 100 µM; in experiment [10], above 100 µM.
In the case of `CCn1c(-c2c(Cl)cc(O)cc2Cl)cc2c(Cl)cc(O)cc21`, the TGI in [1] was 24.8 µM; in experiment [2], above 100 µM; in experiment [3] it was 31.5 µM; in experiment [4], 59.4 µM; in experiment [5], 61 µM; in [6], above 100 µM. Further, the TGI in experiment [7] turned out to be 97 µM; in experiment [8], 17.1 µM; in experiment [9], 10.1 µM; in [10], 27.4 µM.
